Source: ChEMBL document CHEMBL1144892, “Synthesis and biological activity of various derivatives of a novel class of potent, selective, and orally active prostaglandin D2 receptor antagonists. 2. 6,6-Dimethylbicyclo[3.1.1]heptane derivatives” (J Med Chem, 2003)

Experiments:
[1] = tested on: Cavia porcellus; assay: In vivo inhibition of antigen-induced increase in intranasal pressure in actively sensitized guinea pig administered perorally with 10 mg/Kg compound, 10 minutes before the antigen challenge; type: functional; conditions: oral
[2] = biological target: T1, Prostaglandin D2 receptor (Homo sapiens, UniProt Q13258); assay: Prostaglandin D2 receptor antagonist activity, evaluated by inhibition of [3H]PGD-2 binding to human platelet membranes
T1 sequence (Q13258 whole entry): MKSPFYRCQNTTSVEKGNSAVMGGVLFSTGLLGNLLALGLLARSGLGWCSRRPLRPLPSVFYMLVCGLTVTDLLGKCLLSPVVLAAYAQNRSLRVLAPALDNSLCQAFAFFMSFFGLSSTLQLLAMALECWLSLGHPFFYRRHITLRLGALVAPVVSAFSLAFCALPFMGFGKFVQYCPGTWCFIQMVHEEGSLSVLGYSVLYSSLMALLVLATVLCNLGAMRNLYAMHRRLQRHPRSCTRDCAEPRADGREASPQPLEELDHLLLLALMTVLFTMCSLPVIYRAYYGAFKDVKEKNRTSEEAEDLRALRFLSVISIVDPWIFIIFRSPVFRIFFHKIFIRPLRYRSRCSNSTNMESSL

[3] = biological target: T1, Prostaglandin D2 receptor; assay: Concentration required to inhibit the PGD-2 evoked cAMP formation in human platelets; type: functional
[4] = tested on: Cavia porcellus; assay: In vivo inhibition of antigen-induced increase in intranasal pressure in actively sensitized guinea pig administered intravenously with 1 mg/Kg compound, 10 minutes before the antigen challenge; type: functional
[5] = tested on: Cavia porcellus; assay: In vivo percent inhibition against antigen induced increase in intranasal pressure in actively sensitized guinea pig administered intravenously with 1 mg/Kg of compound; type: functional
[6] = tested on: Cavia porcellus; assay: Percent inhibition against antigen induced increase in intranasal pressure in actively sensitized guinea pig administered intravenously with 1 mg/Kg of compound; type: functional
[7] = tested on: Cavia porcellus; assay: Percent inhibition against increase in specific airway resistance by antigen inhalation in conscious guinea pig administered perorally with 10 mg/Kg of compound, 1 hr before the test; type: functional
[8] = tested on: Cavia porcellus; assay: Effective dose required to inhibit conjuctival microvascular permeability caused by topical application of 0.1% PGD-2 in guinea pig administered perorally with compound, 1 hour before the test; type: functional
[9] = tested on: Cavia porcellus; assay: Effective dose required to inhibit conjuctival microvascular permeability caused by topical application of 0.1% antigen in guinea pig administered perorally with compound, 1 hour before the test; type: functional
[10] = tested on: Cavia porcellus; assay: Compound at 10 mg/kg was tested for the inhibition of increase in eosinophil number in bronchoalveolar lavage fluid at 72 hr after inhalation of aerosol antigen in actively sensitized guinea pig; type: functional; conditions: Lung, inhaled or nasal
[11] = tested on: Cavia porcellus; assay: Compound at 10 mg/kg was tested for the inhibition of increase in eosinophil number in nasal lavage fluid at 5 hr after intranasal antigen challenge in actively sensitized guinea pig; type: functional; conditions: inhaled or nasal
[12] = tested on: Cavia porcellus; assay: In vivo inhibition of antigen-induced increase in intranasal pressure in actively sensitized guinea pig administered perorally with 3 mg/Kg compound, 10 minutes before the antigen challenge; type: functional; conditions: inhaled or nasal

IC50 [2] [µM] | IC50 [3] [µM] | Structure (SMILES) | also measured
0.026 | 0.0056 | CC1(C)[C@H]2C[C@H](C/C=C/CCCC(=O)O)[C@@H](NC(=O)c3cccc4ccsc34)[C@@H]1C2 | inhibition in vivo at 10 mg/kg [1]: 70%
 | 0.037 | CC1(C)[C@H]2C[C@H](C/C=C/CCCC(=O)O)[C@@H](NC(=O)c3ccc[nH]3)[C@@H]1C2 | 
0.59 | 0.074 | Cc1scc(C(=O)N[C@@H]2[C@@H](C/C=C/CCCC(=O)O)C[C@H]3C[C@@H]2C3(C)C)c1-c1ccccc1 | 
> 10 | > 1 | CC1(C)[C@H]2C[C@H](CC(=O)CCCCC(=O)O)[C@@H](NC(=O)c3ccsc3)[C@@H]1C2 | 
0.047 | 0.47 | CC1(C)[C@H]2C[C@H](C/C=C\CCCC(=O)O)[C@@H](NC(=O)c3ccc(-c4ccccc4)cc3)[C@@H]1C2 | inhibition in vivo at 1 mg/kg [4]: 30%
> 10 | > 1 | CN(C(=O)c1ccsc1)[C@@H]1[C@@H](C/C=C/CCCC(=O)O)C[C@H]2C[C@@H]1C2(C)C | 
1.3 | > 1 | CC1(C)[C@H]2C[C@H](NS(=O)(=O)c3ccc(-c4ccccc4)cc3)[C@@H](C/C=C\CCCC(=O)O)[C@@H]1C2 | 
> 10 | 0.5 | CC1(C)[C@H]2C[C@H](C/C=C/CCCC(=O)O)[C@@H](NC(=O)c3cncs3)[C@@H]1C2 | 
0.18 | 0.02 | Cc1sccc1C(=O)N[C@@H]1[C@@H](C/C=C/CCCC(=O)O)C[C@H]2C[C@@H]1C2(C)C | 
3.4 | 0.24 | CC1(C)[C@H]2C[C@H](C/C=C/CCCC(=O)O)[C@@H](NC(=O)c3ccc(O)cc3)[C@@H]1C2 | 
0.33 |  | CC1(C)[C@H]2C[C@H](C/C=C/CCCC(=O)O)[C@@H](NC(=O)c3cccnc3)[C@@H]1C2 | 
4.4 | 0.11 | CC1(C)[C@H]2C[C@H](C/C=C/CCCC(=O)O)[C@@H](NC(=O)c3ccc([N+](=O)[O-])cc3)[C@@H]1C2 | 
3.3 | 0.015 | CC1(C)[C@H]2C[C@H](C/C=C/CCCC(=O)O)[C@@H](NC(=O)c3cccs3)[C@@H]1C2 | Inhibition [5]: 38%
0.032 | 0.022 | CC1(C)[C@H]2C[C@H](C/C=C/CCCC(=O)O)[C@@H](NC(=O)c3csc4ccccc34)[C@@H]1C2 | inhibition in vivo at 10 mg/kg [1]: 82%
6 | 0.41 | CC1(C)[C@H]2C[C@H](C/C=C/CCCC(=O)NS(C)(=O)=O)[C@@H](NC(=O)c3ccsc3)[C@@H]1C2 | 
0.15 | 0.035 | CC1(C)[C@H]2C[C@H](C/C=C/CCCC(=O)O)[C@@H](NC(=O)c3csc4c3CCCC4)[C@@H]1C2 | 
2.1 | 0.17 | CC1(C)[C@H]2C[C@H](C/C=C/CCCC(=O)O)[C@@H](NC(=O)c3ccc4c(c3)OCO4)[C@@H]1C2 | 
1.3 | > 1 | CC1(C)[C@H]2C[C@@H](NS(=O)(=O)c3ccc(-c4ccccc4)cc3)[C@H](C/C=C\CCCC(=O)O)[C@@H]1C2 | 
4.6 | 0.32 | COc1ccccc1C(=O)N[C@@H]1[C@@H](C/C=C/CCCC(=O)O)C[C@H]2C[C@@H]1C2(C)C | 
0.0022 | 0.018 | CC1(C)[C@H]2C[C@H](C/C=C/CCCC(=O)O)[C@@H](NC(=O)c3csc4cc(O)ccc34)[C@@H]1C2 | inhibition in vivo at 10 mg/kg [1]: 88%
4.5 | 0.23 | COc1cscc1C(=O)N[C@@H]1[C@@H](C/C=C/CCCC(=O)O)C[C@H]2C[C@@H]1C2(C)C | 
0.69 | 0.076 | CC1(C)[C@H]2C[C@H](C/C=C/CCCC(=O)O)[C@@H](NC(=O)c3cc4ccccc4o3)[C@@H]1C2 | 

IC50 [2] [µM] | IC50 [3] [µM] | Structure (SMILES) | also measured
1.6 | 0.038 | CC1(C)[C@H]2C[C@H](C/C=C/CCCC(=O)O)[C@@H](NC(=O)c3ccsc3)[C@@H]1C2 | Inhibition [6]: 77%; Inhibition [7]: 15%; ED50 [8]: 3.5 mg/kg; ED50 [9]: 9.5 mg/kg
 |  | CC1(C)[C@H]2C[C@H](C/C=C\CCCC(=O)O)[C@@H](NC(=O)c3ccccc3)[C@@H]1C2 | inhibition in vivo at 1 mg/kg [4]: 52%
> 10 | > 1 | CC1(C)[C@H]2C[C@H](C/C=C/CCCC(=O)O)[C@@H](NC(=O)C3CCCCC3)[C@@H]1C2 | 
0.019 | 0.39 | CC1(C)[C@H]2C[C@H](C/C=C/CCCC(=O)O)[C@@H](NC(=O)c3cc4ccccc4s3)[C@@H]1C2 | 
5.1 | > 1 | CC1(C)[C@H]2C[C@H](NC(=O)c3ccc(-c4ccccc4)cc3)[C@@H](C/C=C\CCCC(=O)O)[C@@H]1C2 | 
 |  | CC1(C)[C@H]2C[C@H](C/C=C\CCCC(=O)O)[C@@H](NC(=O)c3ccc(/N=N/c4ccccc4)cc3)[C@@H]1C2 | inhibition in vivo at 1 mg/kg [4]: 60%
0.0019 | 0.0009 | CC1(C)[C@H]2C[C@H](C/C=C/CCCC(=O)O)[C@@H](NC(=O)c3csc4ccc(O)cc34)[C@@H]1C2 | inhibition in vivo at 10 mg/kg [10]: 43%; inhibition in vivo at 10 mg/kg [11]: 80%; inhibition in vivo at 10 mg/kg [1]: 96%; inhibition in vivo at 3 mg/kg [12]: 64%; Inhibition [7]: 70%; ED50 [8]: 0.12 mg/kg; ED50 [9]: 2 mg/kg
0.00042 | 0.0032 | CC1(C)[C@H]2C[C@H](C/C=C/CCCC(=O)O)[C@@H](NC(=O)c3csc4ccc(F)cc34)[C@@H]1C2 | inhibition in vivo at 3 mg/kg [12]: 86%; Inhibition [7]: 69%; ED50 [8]: 3.5 mg/kg; ED50 [9]: 8.9 mg/kg
0.52 | 0.11 | CC1(C)[C@H]2C[C@H](C/C=C/CCCC(=O)O)[C@@H](NC(=O)c3c[nH]c4ccccc34)[C@@H]1C2 | 
3.6 | > 1 | CC1(C)[C@H]2C[C@@H](NC(=O)c3ccc(-c4ccccc4)cc3)[C@H](C/C=C\CCCC(=O)O)[C@@H]1C2 | 
> 10 | > 1 | CN(C(=O)c1ccccc1)[C@@H]1[C@@H](C/C=C/CCCC(=O)O)C[C@H]2C[C@@H]1C2(C)C | 
1.2 | 0.53 | CC1(C)[C@H]2C[C@H](C/C=C\CCCC(=O)O)[C@@H](NS(=O)(=O)c3ccc(-c4ccccc4)cc3)[C@@H]1C2 | 
7.5 | 0.03 | CC1(C)[C@H]2C[C@H](C/C=C/CCCC(=O)O)[C@@H](NC(=O)c3csc4ccc(NS(C)(=O)=O)cc34)[C@@H]1C2 | 
0.042 | 0.1 | CC1(C)[C@H]2C[C@H](C/C=C/CCCC(=O)O)[C@@H](NC(=O)c3csc(-c4ccccc4)c3)[C@@H]1C2 | 
 | 0.073 | CC1(C)[C@H]2C[C@H](C/C=C/CCCC(=O)O)[C@@H](NC(=O)c3ccc4ccccc4c3)[C@@H]1C2 | 
0.56 | 0.017 | CC1(C)[C@H]2C[C@H](C/C=C/CCCC(=O)O)[C@@H](NC(=O)Cc3ccoc3)[C@@H]1C2 | 
0.52 | 0.056 | COc1cc(C(=O)N[C@@H]2[C@@H](C/C=C/CCCC(=O)O)C[C@H]3C[C@@H]2C3(C)C)cs1 | 
> 10 | > 1 | CC1(C)[C@H]2C[C@H](C/C=C/CCCC(=O)O)[C@@H](NC(=O)Cc3ccccc3)[C@@H]1C2 | 
3.9 | 0.19 | COc1ccc(C(=O)N[C@@H]2[C@@H](C/C=C/CCCC(=O)O)C[C@H]3C[C@@H]2C3(C)C)cc1 | 
0.42 | 0.11 | Cn1ccc(C(=O)N[C@@H]2[C@@H](C/C=C/CCCC(=O)O)C[C@H]3C[C@@H]2C3(C)C)c1 | 
 | 0.093 | CC1(C)[C@H]2C[C@H](C/C=C/CCCc3nnn[nH]3)[C@@H](NC(=O)c3ccsc3)[C@@H]1C2 | 
0.013 | 0.025 | Cc1cc(C(=O)N[C@@H]2[C@@H](C/C=C/CCCC(=O)O)C[C@H]3C[C@@H]2C3(C)C)cs1 | 
